This note sets out measurements from patent US20250368628A1, “METHODS AND COMPOUNDS FOR MODULATING INHERITED GENETIC DISEASES” (Design Therapeutics, Inc., priority 2022, published 2025).

In test [1] the test system is F35T cells. Nature of the test: Foci reduction in FECD (CAG10-Cy3 FISH, foci per nucleus). Type of test: cell-based. The method, boiled down:
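Foci per nucleus were counted by imaging after overnight CAG10-Cy3 FISH at 37 °C (30% formamide, 2×SSC) with DAPI counterstain, on PFA-fixed, ethanol-permeabilized F35T cells. The cells, seeded at 5000 per well in supplemented Opti-MEM, had received 8-point compound dilutions for 48 h at 37 °C.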

The test system of test [2] is Myotonic Dystrophy 1 affected patient fibroblasts (Coriel GM04602; 1600 CTG repeats). Nature of the test: DM1 foci reduction assay (EC50 assay; CAG10-Cy3 FISH, foci per nucleus). It counts as cell-based. The method, boiled down:
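Foci per nucleus counted by 20× imaging of 4 areas per well, after overnight FISH with 5 nM CAG10-Cy3 and DAPI staining of fixed, permeabilized cells. DM1 fibroblasts (GM04602, 1600 CTG) were dosed 48 h at 37 °C, 8 points, 3-fold dilutions, 3 μM top concentration.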

The mark [3] stands for this setting: F35T cells, 48 h treatment, foci per nucleus; read-out: FECD EC50, 48 h.
[4] abbreviates: Homo sapiens, Fibroblast; DM1 patient fibroblasts, 48 h treatment, foci per nucleus; read-out: DM1 EC50, 48 h.

Each structure is given as a SMILES string. Read-outs that look alike come from different tables or passages of the source.

Consider `Cn1cc(NC(=O)c2nc(NC(=O)CCNC(=O)c3cc(NC(=O)c4nccn4C)cn3C)cn2C)cc1C(=O)NCCCC(=O)Nc1cn(C)c(C(=O)NCCC(=O)Nc2cc(C(=O)Nc3cn(C)c(C(=O)NCCC(=O)NCCCO)n3)n(C)c2)n1` [Compound B-52], for which the EC50 in test [1] (setting [3]) and in test [2] (setting [4]) was less than 100 nM each time.

For `COCCOCCOCCOCCN(CCCCCn1cc(NC(=O)c2nc(NC(=O)CCNC(=O)c3cc(NC(=O)c4nccn4C)cn3C)cn2C)cc1C(=O)NCCCC(=O)Nc1cn(C)c(C(=O)NCCC(=O)Nc2cc(C(=O)Nc3cn(C)c(C(=O)NCCC(=O)NCCOCCOCCOCCN4CCC(C#CC#CC5CCN(C(=O)OC(C)(C)C)CC5)CC4)n3)n(C)c2)n1)CCOCCOCCOCCOC` [Compound B-226], the 50% effective concentration (EC50) in test [1] (setting [3]) and in test [2] (setting [4]) was 100 to 500 nM in each case.

Regarding `Cn1cc(NC(=O)c2nc(NC(=O)CCNC(=O)c3cc(NC(=O)c4nccn4C)cn3C)cn2C)cc1C(=O)NCCCC(=O)Nc1cn(C)c(C(=O)NCCC(=O)Nc2cc(C(=O)Nc3cn(C)c(C(=O)NCCC(=O)NC4COP(=O)(O)OC4)n3)n(C)c2)n1` (stereo not shown) [Compound B-392], the EC50 was greater than 1000 nM in test [1] (setting [3]) and 500 to 1000 nM in test [2] (setting [4]).

Take `CC(=O)N1CCN(CC2CCN(C(=O)CCNC(=O)c3nc(NC(=O)c4cc(NC(=O)CCNC(=O)c5nc(NC(=O)CCCNC(=O)c6cc(NC(=O)c7nc(NC(=O)CCNC(=O)c8cc(NC(=O)c9nccn9C)cn8C)cn7C)cn6C)cn5C)cn4C)cn3C)CC2)CC1` [Compound B-128]: the EC50 in test [1] (setting [3]) is less than 100 nM; in test [2] (setting [4]), 100 to 500 nM.

As for `Cn1cc(NC(=O)c2nc(NC(=O)CCNC(=O)c3cc(NC(=O)c4nccn4C)cn3C)cn2C)cc1C(=O)NCCCC(=O)Nc1cn(C)c(C(=O)NCCC(=O)Nc2cc(C(=O)Nc3cn(C)c(C(=O)NCCC(=O)NCCOCCN4CCC(C#CC#CC5CCNCC5)CC4)n3)n(C)c2)n1` [Compound B-20], the EC50 in test [1] (setting [3]) and in test [2] (setting [4]) was 500 to 1000 nM throughout.

Turning to `Cn1cc(NC(=O)c2nc(NC(=O)CCNC(=O)c3cc(NC(=O)c4nccn4C)cn3C)cn2C)cc1C(=O)NCCCC(=O)Nc1cn(C)c(C(=O)NCCC(=O)Nc2cc(C(=O)Nc3cn(C)c(C(=O)NCCCO)n3)n(C)c2)n1` [Compound B-105], the EC50 in test [1] (setting [3]) and in test [2] (setting [4]) was 100 to 500 nM in each case.

As for `Cn1cc(NC(=O)c2nc(NC(=O)CCNC(=O)c3cc(NC(=O)c4nccn4C)cn3C)cn2C)cc1C(=O)NCCCC(=O)Nc1cn(C)c(C(=O)NCCC(=O)Nc2cc(C(=O)Nc3cn(C)c(C(=O)NCCCNCC#Cc4cccc(C(=O)O)c4)n3)n(C)c2)n1` [Compound B-248], the EC50 is less than 100 nM in test [1] (setting [3]) and 100 to 500 nM in test [2] (setting [4]).

In the case of `CCCCn1cc(NC(=O)c2nc(NC(=O)CCNC(=O)c3cc(NC(=O)c4nccn4C)cn3C)cn2C)cc1C(=O)NCC[C@@H](N)C(=O)Nc1cn(C)c(C(=O)NCCC(=O)Nc2cc(C(=O)Nc3cn(C)c(C(=O)NCCC(=O)N4CCN(C)CC4)n3)n(C)c2)n1` [Compound B-408], the EC50 in test [1] (setting [3]) and in test [2] (setting [4]) was 100 to 500 nM in each case.

As to `CCCNC(=O)CCNC(=O)c1nc(NC(=O)c2cc(NC(=O)CCNC(=O)c3nc(NC(=O)CCCNC(=O)c4cc(NC(=O)c5nc(NC(=O)CCNC(=O)c6cc(NC(=O)c7nccn7C)cn6C)cn5C)cn4C)cn3C)cn2C)cn1C` [Compound B-1], the EC50 in test [1] (setting [3]) is less than 100 nM; in test [2] (setting [4]) it was 100 to 500 nM.

For `CCCNC(=O)CCNC(=O)c1nc(NC(=O)c2cc(NC(=O)CCNC(=O)c3nc(NC(=O)CCCNC(=O)c4cc(NC(=O)c5nc(NC(=O)CCNC(=O)c6cc(NC(=O)c7nccn7C)cn6C)cn5C)cn4CCCN)cn3C)cn2C)cn1C` [Compound B-272], the EC50 in test [1] (setting [3]) was less than 100 nM; in test [2] (setting [4]), 100 to 500 nM.

`CN1CCC(N2CCN(C(=O)CCNC(=O)c3nc(NC(=O)c4cc(NC(=O)CCNC(=O)c5nc(NC(=O)CCCNC(=O)c6cc(NC(=O)c7nc(NC(=O)CCNC(=O)c8cc(NC(=O)c9nccn9C)cn8C)cn7C)cn6C)cn5C)cn4C)cn3C)CC2)CC1` [Compound B-120]: the values for the half-maximal effective concentration (EC50) in test [1] (setting [3]) and in test [2] (setting [4]) were greater than 1000 nM and 500 to 1000 nM, respectively.

For `Cn1cc(NC(=O)c2nc(NC(=O)CCNC(=O)c3cc(NC(=O)c4nccn4C)cn3C)cn2C)cc1C(=O)NCCCC(=O)Nc1cn(C)c(C(=O)NCCC(=O)Nc2cc(C(=O)Nc3cn(C)c(C(=O)NCCCN(CC#Cc4ccc(C(=O)O)cc4)CCCN)n3)n(C)c2)n1` [Compound B-384], the EC50 in test [1] (setting [3]) and in test [2] (setting [4]) was 100 to 500 nM in each case.

Take `CN(CCCNC(=O)OC(C)(C)C)CCCNC(=O)c1nc(NC(=O)c2cc(NC(=O)CCNC(=O)c3nc(NC(=O)CCCNC(=O)c4cc(NC(=O)c5nc(NC(=O)CCNC(=O)c6cc(NC(=O)c7nccn7C)cn6C)cn5C)cn4CCCCCCN=[N+]=[N-])cn3C)cn2C)cn1C` [Compound B-363]: the EC50 in test [1] (setting [3]) and in test [2] (setting [4]) was less than 100 nM each time.

Turning to `Cn1cc(NC(=O)c2nc(NC(=O)CCNC(=O)c3cc(NC(=O)c4nccn4C)cn3C)cn2C)cc1C(=O)NCCCC(=O)Nc1cn(C)c(C(=O)NCCC(=O)Nc2cc(C(=O)Nc3cn(C)c(C(=O)NCCC(=O)NCC#Cc4ccccc4)n3)n(C)c2)n1` [Compound B-136], the EC50 in test [1] (setting [3]) and in test [2] (setting [4]) was 100 to 500 nM in each case.

`CCCCCNC(=O)c1nc(NC(=O)c2cc(NC(=O)CCNC(=O)c3nc(NC(=O)CCCNC(=O)c4cc(NC(=O)c5nc(NC(=O)CCNC(=O)c6cc(NC(=O)c7nccn7C)cn6C)cn5C)cn4CCCCCCNC(=O)CCOCCOCCOCCOCCOCCOC)cn3C)cn2C)cn1C` [Compound B-236]: the EC50 in test [1] (setting [3]) and in test [2] (setting [4]) was 100 to 500 nM each time.

With `CCCCn1cc(NC(=O)c2nc(NC(=O)CCNC(=O)c3cc(NC(=O)c4nccn4C)cn3C)cn2C)cc1C(=O)NC[C@H](N)CC(=O)Nc1cn(C)c(C(=O)NCCC(=O)Nc2cc(C(=O)Nc3cn(C)c(C(=O)NCCC(=O)N4CCN(C)CC4)n3)n(C)c2)n1` [Compound B-420], the EC50 in test [1] (F35T cells, foci per nucleus, 48 h treatment; read-out: FECD EC50, 48 h) lay in the range of 500 to 1000 nM; in test [2] (Homo sapiens, Fibroblast; DM1 patient fibroblasts, foci per nucleus, 48 h treatment; read-out: DM1 EC50, 48 h), 100 to 500 nM.

In the case of `CN(C)C(=NCCCNC(=O)CCNC(=O)c1nc(NC(=O)c2cc(NC(=O)CCNC(=O)c3nc(NC(=O)CCCNC(=O)c4cc(NC(=O)c5nc(NC(=O)CCNC(=O)c6cc(NC(=O)c7nccn7C)cn6C)cn5C)cn4C)cn3C)cn2C)cn1C)N(C)C` [Compound B-72], the EC50 in test [1] (setting [3]) is greater than 1000 nM; in test [2] (setting [4]) it was 500 to 1000 nM.

Take `CCN(CC)CCCC[C@H](NC(=O)C(C)(C)C)C(=O)NCCOCCOCCOCCOCCOCCNC(=O)CCNC(=O)c1nc(NC(=O)c2cc(NC(=O)CCNC(=O)c3nc(NC(=O)CCCNC(=O)c4cc(NC(=O)c5nc(NC(=O)CCNC(=O)c6cc(NC(=O)c7nccn7C)cn6C)cn5C)cn4C)cn3C)cn2C)cn1C` [Compound B-90]: the EC50 in test [1] (setting [3]) was greater than 1000 nM; in test [2] (setting [4]), 500 to 1000 nM.

With `CC(=O)NCCOCCCn1cc(NC(=O)c2nc(NC(=O)CCNC(=O)c3cc(NC(=O)c4nccn4C)cn3C)cn2C)cc1C(=O)NCCCC(=O)Nc1cn(C)c(C(=O)NCCC(=O)Nc2cc(C(=O)Nc3cn(C)c(C(=O)NCCC(=O)N4CCC(C#CC#CC5CCNCC5)CC4)n3)n(C)c2)n1` [Compound B-306], the EC50 in test [1] (setting [3]) and in test [2] (setting [4]) was less than 100 nM throughout.

In the case of `Cn1cc(NC(=O)c2nc(NC(=O)CCNC(=O)c3cc(NC(=O)c4nccn4C)cn3C)cn2C)cc1C(=O)NCCCC(=O)Nc1cn(C)c(C(=O)NCCC(=O)Nc2cc(C(=O)Nc3cn(C)c(C(=O)NCCOCCOCCOCCN4CCC(C#CC#CC5CCNCC5)CC4)n3)n(C)c2)n1` [Compound B-107], the EC50 in test [1] (setting [3]) and in test [2] (setting [4]) was 100 to 500 nM throughout.
